Holding throughout (assay type): cell-based
Assay [1] addresses α4β1 integrin (Homo sapiens (Human), UniProt P05556+P13612). Description: VCAM-1/α4β1 integrin binding inhibitory activity evaluation test (Jurkat cell adhesion to VCAM-1/Fc). The following applies: Jurkat cells binding to recombinant human VCAM-1/Fc. The method, then: The ability of test substances to inhibit the binding of a human T-cell line, Jurkat, which is known to express α4β1 integrin, to VCAM-1 was measured. To 96-well microtiter plates, recombinant human VCAM-1/Fc (R&D systems) solution (1 μg/mL) diluted with buffer A (carbonate buffer, pH 9.6) was added at 50 μL/well, followed by incubation at 4° C. overnight. After washing once with PBS, Block Ace (Snow Brand Milk Products Company, Limited) was added at 150 μL/well, followed by incubation at room temperature for 2 hours. After removal, washing was conducted once with PBS. 100 μL of each test substance diluted with a binding buffer (DMEM containing 40 mM HEPES, 0.2% BSA, and 4 mM MnCl2) to various concentrations and 100 μL of the Jurkat cells (2×10^6 cell/mL) were added to the plates coated with VCAM-1/Fc (5×10^5 cells/well), followed by incubation at 30° C. for 15 minutes to 60 minutes. After the cells were bound to each well, unbound cells were removed by washing with PBS. To the plates, buffer C (PBS containing 1.5% Triton X-100) was added at 50 μL/well to lyse the bound Jurkat cells. To 30 μL of the cell lysate, 30 μL of Substrate Buffer (Promega, CytoTox 96 Non-Radioactive Cytotoxicity Assay) was added, and the reaction was allowed to proceed at room temperature in a dark place for 30 minutes. To each well, 30 μL of Stop Solution (Promega, CytoTox 96 Non-Radioactive Cytotoxicity Assay) was added, and the absorbance at 490 nm was measured by using a plate reader. Here, by the obtained absorbance, the activity of the lactate dehydrogenase (LDH) dissolved into the supernatant of each well was detected. In other words, the absorbance was proportional to the number of the Jurkat cells bound to VCAM-1 and remaining on the plate. The test was duplicated. The binding ratios of the cells at various concentrations were determined, with the absorbance of a well containing no test substances taken as 100%. Then, the concentration IC50, at which 50% binding inhibition was achieved, was calculated. […] Note that, among the compounds synthesized in the corresponding Examples, the compounds in the free form (Compounds A-1 to A-39) were used as the test compounds. Hereinafter, the same shall apply.

In assay [2] the target is T1, α4β7 integrin (Homo sapiens (Human), UniProt P13612+P26010). Description: MAdCAM-1/α4β7 integrin binding inhibitory activity evaluation test (RPMI-8866 cell adhesion to MAdCAM-1/Fc). The following applies: for Selectivity: IC50 in VCAM-1/α4β1 test divided by IC50 in MAdCAM-1/α4β7 test; for IC50: RPMI-8866 cells binding to recombinant mouse MAdCAM-1/Fc, no serum. As for the experimental part: The ability of test substances to inhibit the binding of a human B cell line, RPMI-8866, which is known to express α4β7 integrin, to MAdCAM-1 was measured. To 96-well microtiter plates, recombinant mouse MAdCAM-1/Fc (R&D systems) solution (0.75 μg/mL) diluted with buffer A (carbonate buffer solution, pH 9.6) was added at 50 μL/well, followed by incubation at 4° C. overnight. After washing once with PBS, Block Ace (Snow Brand Milk Products Company, Limited) was added at 150 μL/well, followed by incubation at room temperature for 2 hours. After removal, washing was conducted once with PBS. 100 μL of each test substance diluted with binding buffer (DMEM containing 40 mM HEPES, 0.2% BSA, and 4 mM MnCl2) to various concentrations and 100 μL of RPMI-8866 cells (2×10^6 cell/mL) were added to the plates coated with MAdCAM-1/Fc (5×10^5 cells/well), followed by incubation at 30° C. for 15 minutes to 60 minutes. After the cells were bound to each well, unbound cells were removed by washing with PBS. To the plates, buffer C (PBS containing 1.5% Triton X-100) was added at 50 μL/well to lyse the bound RPMI-8866 cells. To 30 μL of the cell lysate, 30 μL of Substrate Buffer (Promega, CytoTox 96 Non-Radioactive Cytotoxicity Assay) was added, and the reaction was allowed to proceed at room temperature in a dark place for 30 minutes. To each well, 30 μL of Stop Solution (Promega, CytoTox 96 Non-Radioactive Cytotoxicity Assay) was added, and the absorbance at 490 nm was measured by using a plate reader. Here, by the obtained absorbance, the activity of the lactate dehydrogenase (LDH) dissolved into the supernatant of each well was detected. In other words, the absorbance was proportional to the number of the RPMI-8866 cells bound to MAdCAM-1 and remaining on the plate. The test was duplicated. The binding ratios of the cells at various concentrations were determined, with the absorbance of a well containing no test substance taken as 100%. Then, the concentration IC50, at which 50% binding inhibition was achieved, was calculated. […] Note that the selectivity in the table was determined by dividing the IC50 value in VCAM-1/α4β1 Integrin Binding Inhibitory Activity Evaluation Test by the IC50 value in the MAdCAM-1/α4β7 integrin binding inhibitory activity evaluation test.
T1 sequence (P13612 34-1032): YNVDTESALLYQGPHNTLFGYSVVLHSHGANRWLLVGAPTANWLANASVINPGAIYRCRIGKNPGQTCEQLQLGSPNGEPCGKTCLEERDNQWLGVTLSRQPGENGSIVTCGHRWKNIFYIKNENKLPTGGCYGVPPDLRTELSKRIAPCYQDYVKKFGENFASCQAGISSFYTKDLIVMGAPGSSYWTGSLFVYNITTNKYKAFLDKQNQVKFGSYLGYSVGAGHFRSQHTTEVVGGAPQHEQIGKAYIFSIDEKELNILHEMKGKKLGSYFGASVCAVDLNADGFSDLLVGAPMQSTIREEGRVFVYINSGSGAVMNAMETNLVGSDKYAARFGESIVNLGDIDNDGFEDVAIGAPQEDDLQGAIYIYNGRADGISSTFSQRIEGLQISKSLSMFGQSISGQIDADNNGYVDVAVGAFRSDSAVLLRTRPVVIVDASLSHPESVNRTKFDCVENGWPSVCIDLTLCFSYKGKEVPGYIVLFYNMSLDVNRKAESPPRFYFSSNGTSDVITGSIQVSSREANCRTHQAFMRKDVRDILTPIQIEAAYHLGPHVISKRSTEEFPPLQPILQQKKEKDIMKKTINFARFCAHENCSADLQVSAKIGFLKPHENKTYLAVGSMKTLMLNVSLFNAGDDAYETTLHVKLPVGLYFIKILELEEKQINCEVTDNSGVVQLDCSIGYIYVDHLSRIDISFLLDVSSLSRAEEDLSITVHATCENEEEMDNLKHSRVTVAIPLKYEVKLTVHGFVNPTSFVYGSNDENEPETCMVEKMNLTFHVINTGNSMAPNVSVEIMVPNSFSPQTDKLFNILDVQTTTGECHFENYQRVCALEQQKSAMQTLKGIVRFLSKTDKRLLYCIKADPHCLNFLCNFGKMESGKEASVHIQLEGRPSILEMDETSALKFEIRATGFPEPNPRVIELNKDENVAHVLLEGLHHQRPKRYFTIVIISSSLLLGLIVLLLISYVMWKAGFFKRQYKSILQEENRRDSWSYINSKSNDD
T1 sequence (P26010 20-798): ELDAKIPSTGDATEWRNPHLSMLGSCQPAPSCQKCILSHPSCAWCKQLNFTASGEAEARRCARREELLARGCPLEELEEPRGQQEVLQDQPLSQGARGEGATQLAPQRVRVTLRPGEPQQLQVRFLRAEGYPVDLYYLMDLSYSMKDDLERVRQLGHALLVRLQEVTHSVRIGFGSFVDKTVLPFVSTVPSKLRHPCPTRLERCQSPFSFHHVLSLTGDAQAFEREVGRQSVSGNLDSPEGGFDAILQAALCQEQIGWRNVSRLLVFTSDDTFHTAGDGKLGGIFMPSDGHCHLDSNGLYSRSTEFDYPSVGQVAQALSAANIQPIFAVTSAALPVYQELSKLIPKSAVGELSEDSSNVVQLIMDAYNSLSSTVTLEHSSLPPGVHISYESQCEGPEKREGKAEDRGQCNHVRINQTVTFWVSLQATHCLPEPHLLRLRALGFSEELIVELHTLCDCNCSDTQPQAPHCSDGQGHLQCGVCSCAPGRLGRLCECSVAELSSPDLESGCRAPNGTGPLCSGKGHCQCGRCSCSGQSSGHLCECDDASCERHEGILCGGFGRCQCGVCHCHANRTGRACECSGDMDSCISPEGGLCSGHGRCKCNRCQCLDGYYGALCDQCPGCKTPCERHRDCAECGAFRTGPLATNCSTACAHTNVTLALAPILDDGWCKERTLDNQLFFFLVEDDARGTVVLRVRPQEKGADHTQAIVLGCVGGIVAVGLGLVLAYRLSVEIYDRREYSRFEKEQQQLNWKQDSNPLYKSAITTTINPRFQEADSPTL

Assay [3] addresses T1, α4β7 integrin. Put plainly: MAdCAM-1/α4β7 integrin binding inhibitory activity evaluation test in the presence of serum (1). The following applies: RPMI-8866 cells binding to mouse MAdCAM-1/Fc, human serum at final concentration of 50%; read-out: α4β7 with serum added, IC50. The method, then:
The ability of test substances to inhibit the binding of a human B cell line, RPMI-8866, which is known to express α4β7 integrin, to MAdCAM-1 was measured. To 96-well microtiter plates, recombinant mouse MAdCAM-1/Fc (R&D systems) solution (1 μg/mL) diluted with buffer A (carbonate buffer, pH 9.6) was added at 50 μL/well, followed by incubation at 4° C. overnight. After washing once with PBS, Block Ace (Snow Brand Milk Products Company, Limited) was added at 150 μL/well, followed by incubation at room temperature for 2 hours. After removal, washing was conducted once with PBS. 100 μL of each test substance diluted with a binding buffer (DMEM containing 40 mM HEPES, 0.2% BSA, and 4 mM MnCl2) to various concentrations and 100 μL of RPMI-8866 cells (2×10^6 cell/mL) were added to plates coated with MAdCAM-1/Fc (5×10^5 cells/well) with human serum being contained at a final concentration of 50%, followed by incubation at 30° C. for 15 minutes to 60 minutes. After the cells were bound to each well, unbound cells were removed by washing with PBS. To the plates, buffer C (PBS containing 1.5% Triton X-100) was added at 50 μL/well to lyse the bound RPMI-8866 cells. To 30 μL of the cell lysate, 30 μL of Substrate Buffer (Promega, CytoTox 96 Non-Radioactive Cytotoxicity Assay) was added, and the reaction was allowed to proceed at room temperature in a dark place for 30 minutes. To each well, 30 μL of Stop Solution (Promega, CytoTox 96 Non-Radioactive Cytotoxicity Assay) was added, and the absorbance at 490 nm was measured by using a plate reader. Here, by the obtained absorbance, the activity of the lactate dehydrogenase (LDH) dissolved into the supernatant of each well was detected. In other words, the absorbance was proportional to the number of the RPMI-8866 cells bound to MAdCAM-1 and remaining on the plate. The test was duplicated. The binding ratios of the cells at various concentrations were determined, with the absorbance of a well containing no test substance taken as 100%. Then, the concentration IC50, at which 50% binding inhibition was achieved, was calculated.

The structures appear in SMILES notation.

Chain of α4β1 integrin (P13612 34-1032): as the sequence (P13612 34-1032) above
Chain of α4β1 integrin (P05556 21-798): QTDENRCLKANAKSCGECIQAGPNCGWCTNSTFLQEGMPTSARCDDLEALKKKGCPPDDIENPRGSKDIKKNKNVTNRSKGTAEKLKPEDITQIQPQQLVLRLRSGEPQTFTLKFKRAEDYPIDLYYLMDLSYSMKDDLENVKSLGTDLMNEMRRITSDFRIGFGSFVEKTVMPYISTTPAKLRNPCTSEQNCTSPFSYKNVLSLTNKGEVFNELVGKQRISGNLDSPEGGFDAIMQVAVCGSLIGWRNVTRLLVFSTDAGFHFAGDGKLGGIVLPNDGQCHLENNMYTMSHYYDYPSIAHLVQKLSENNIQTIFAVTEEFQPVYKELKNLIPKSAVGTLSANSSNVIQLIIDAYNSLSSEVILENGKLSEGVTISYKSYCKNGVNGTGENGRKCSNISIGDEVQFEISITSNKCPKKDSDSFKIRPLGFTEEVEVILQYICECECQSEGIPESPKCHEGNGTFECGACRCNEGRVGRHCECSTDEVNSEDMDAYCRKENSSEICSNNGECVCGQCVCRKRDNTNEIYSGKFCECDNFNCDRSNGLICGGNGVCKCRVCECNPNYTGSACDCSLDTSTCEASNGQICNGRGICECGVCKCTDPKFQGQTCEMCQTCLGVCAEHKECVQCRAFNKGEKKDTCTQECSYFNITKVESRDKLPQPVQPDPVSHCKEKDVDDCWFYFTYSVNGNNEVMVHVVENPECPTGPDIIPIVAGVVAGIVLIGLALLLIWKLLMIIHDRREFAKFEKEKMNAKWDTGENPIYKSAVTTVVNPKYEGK

In general, IC50 refers to the concentration needed to halve the response being measured. With `Cn1c(=O)n(-c2ccc(C[C@H](NC(=O)c3c(F)cc(NS(=O)(=O)c4ccc(-c5ncc[nH]5)cc4)cc3F)C(=O)O)cc2)c(=O)c2ccncc21` [Example 48, N-[2,6-Difluoro-4-({[4-(1H-imidazol-2-yl)phenyl]sulfonyl}amino)benzoyl]-4-(1-methyl-2,4-dioxo-1,4-dihydropyrido[3,4-d]pyrimidin-3(2H)-yl)-L-phenylalanine], the results for the IC50 in assay [1], in assay [2] and in assay [3] were 54 nM, 0.24 nM and 14 nM, respectively. For the same compound, the Selectivity in assay [2] came to 230.

Consider `Cc1cc(-c2ccc(S(=O)(=O)Nc3cc(F)c(C(=O)N[C@@H](Cc4ccc(-n5c(=O)c6ccncc6n(C)c5=O)cc4)C(=O)O)c(F)c3)cc2)ccn1` [Example 49, N-[2,6-Difluoro-4-({[4-(2-methylpyridin-4-yl)phenyl]sulfonyl}amino)benzoyl]-4-(1-methyl-2,4-dioxo-1,4-dihydropyrido[3,4-d]pyrimidin-3(2H)-yl)-L-phenylalanine], for which the IC50 in assay [1] was determined as 330 nM; in assay [2], 0.43 nM; in assay [3], 25 nM. The compound also registered a Selectivity in assay [2] of 770.

Consider `Cc1ccc(-c2ccc(S(=O)(=O)Nc3cc(F)c(C(=O)N[C@@H](Cc4ccc(-n5c(=O)c6ccncc6n(C)c5=O)cc4)C(=O)O)c(F)c3)cc2)cn1` [Example 50, N-[2,6-Difluoro-4-({[4-(6-methylpyridin-3-yl)phenyl]sulfonyl}amino)benzoyl]-4-(1-methyl-2,4-dioxo-1,4-dihydropyrido[3,4-d]pyrimidin-3(2H)-yl)-L-phenylalanine], for which the half-maximal inhibitory concentration (IC50) in assay [1] was 180 nM; in assay [2] it was 0.32 nM; in assay [3] it was 19 nM. In assay [2], this compound displayed a Selectivity of 560.

In the case of `COc1ccc2c(c1)c(=O)n(-c1ccc(C[C@H](NC(=O)c3c(F)cc(NS(=O)(=O)c4ccc(-n5ccnn5)cc4)cc3F)C(=O)O)cc1)c(=O)n2C` [Example 51, N-[2,6-Difluoro-4-({[4-(1H-1,2,3-triazol-1-yl)phenyl]sulfonyl}amino)benzoyl]-4-(6-methoxy-1-methyl-2,4-dioxo-1,4-dihydroquinazolin-3(2H)-yl)-L-phenylalanine], the IC50 in assay [1] is 1500 nM; in assay [2] it was 6.9 nM; in assay [3] it was 21 nM. In assay [2], this compound showed a Selectivity of 220.

For `CNCc1ccc(S(=O)(=O)Nc2ccc(C(=O)N[C@@H](Cc3ccc(-n4c(=O)c5ccncc5n(C)c4=O)cc3)C(=O)O)c(F)c2)cc1` [Example 52, N-{2-Fluoro-4-[({4-[(methylamino)methyl]phenyl}sulfonyl)amino]benzoyl}-4-(1-methyl-2,4-dioxo-1,4-dihydropyrido[3,4-d]pyrimidin-3(2H)-yl)-L-phenylalanine], the IC50 in assay [1] was determined as 550 nM; in assay [2], 2.6 nM; in assay [3], 13 nM. In assay [2], this compound had a Selectivity of 210.

In the case of `Cn1c(=O)n(-c2ccc(C[C@H](NC(=O)c3c(F)cc(NS(=O)(=O)c4ccc(-c5ccsc5)cc4)cc3F)C(=O)O)cc2)c(=O)c2ccncc21` [Example 53, N-[2,6-Difluoro-4-({[4-(3-thienyl)phenyl]sulfonyl}amino)benzoyl]-4-(1-methyl-2,4-dioxo-1,4-dihydropyrido[3,4-d]pyrimidin-3(2H)-yl)-L-phenylalanine], the half-inhibitory concentration (IC50) in assay [1] is 740 nM; in assay [2] it was 2.8 nM; in assay [3] it was 24 nM. In addition, the Selectivity in assay [2] was 260.

As for `Cn1c(=O)n(-c2ccc(C[C@H](NC(=O)c3c(F)cc(NS(=O)(=O)c4ccc(-c5cncnc5)cn4)cc3F)C(=O)O)cc2)c(=O)c2ccncc21` [Example 54, N-(2,6-Difluoro-4-{[(5-pyrimidin-5-yl-pyridin-2-yl)sulfonyl]amino}benzoyl)-4-(1-methyl-2,4-dioxo-1,4-dihydropyrido[3,4-d]pyrimidin-3(2H)-yl)-L-phenylalanine], the figures for the IC50 in assay [1], in assay [2] and in assay [3] were 18 nM, 0.077 nM and 1.6 nM, respectively. Also, in assay [2], the Selectivity was determined as 230.

With `Cn1c(=O)n(-c2ccc(C[C@H](NC(=O)c3c(F)cc(NS(=O)(=O)c4ccc(-n5cncn5)nc4)cc3F)C(=O)O)cc2)c(=O)c2ccncc21` [Example 55, N-[2,6-Difluoro-4-({[6-(1H-1,2,4-triazol-1-yl)pyridin-3-yl]sulfonyl}amino)benzoyl]-4-(1-methyl-2,4-dioxo-1,4-dihydropyrido[3,4-d]pyrimidin-3(2H)-yl)-L-phenylalanine], the IC50 worked out at 45 nM in assay [1], 0.27 nM in assay [2] and 4.6 nM in assay [3]. Also, the Selectivity in assay [2] is 170.

With `Cn1ccc(=O)n(-c2ccc(C[C@H](NC(=O)c3c(F)cc(NS(=O)(=O)c4ccc(-n5cncn5)cn4)cc3F)C(=O)O)cc2)c1=O` [Example 56, N-[2,6-Difluoro-4-({[5-(1H-1,2,4-triazol-1-yl)pyridin-2-yl]sulfonyl}amino)benzoyl]-4-(3-methyl-2,6-dioxo-3,6-dihydropyrimidin-1(2H)-yl)-L-phenylalanine], the values for the IC50 in assay [1], in assay [2] and in assay [3] were 160 nM, 2 nM and 5.4 nM, respectively. This compound registered a Selectivity in assay [2] of 80.

(Values after patent US9533985B2, “Sulfonamide derivative and medicinal use thereof” (EA Pharma Co., Ltd., priority 2012, dated 2017).)
